± gives the standard deviation of the averaged measurements.
Experiments:
Assay in all cases: level (log10 ratio to DMSO vehicle control); higher = higher biomarker level / cell amount than vehicle control
Details in all cases: in DMSO
[1] = compound: C=C(C)C(=O)OCC(F)(F)C(F)(F)C(F)(F)C(F)(F)C(F)(F)C(F)(F)C(F)(F)F
Experimental: (§1)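 BioMAP Diversity Plus panel of 12 human primary cell co-culture systems (3C, 4H, LPS, SAg, BT, BF4T, BE3C, CASM3C, HDF3CGF, KF3CT, MyoF, Mphg). Compounds were added 1 h before stimulation and left for 24 h (MyoF 48 h; BT 72 h for soluble read-outs or 6 d for IgG). Biomarkers were read by ELISA, cytotoxicity by SRB, PBMC viability and proliferation by Alamar Blue. Each well value was divided by the mean of 8 DMSO control wells on the same plate and log10 transformed; duplicate blinded samples were tested at 4 concentrations.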

[2] = compound: CC(C)(C)C(=O)CC(=O)C(F)(F)C(F)(F)C(F)(F)F [(Heptafluorobutanoyl)pivaloylmethane]
Experimental: as §1

[3] = compound: O=C(O)C(F)(F)C(F)(F)C(F)(F)C(F)(F)C(F)(F)C(F)(F)C(F)(F)C(F)(F)C(F)(F)C(F)(F)C(F)(F)C(F)(F)C(F)(F)F [Perfluorotetradecanoic acid]
Experimental: as §1

[4] = compound: O=C(O)C(F)(F)C(F)(F)C(F)(F)C(F)(F)C(F)(F)C(F)(F)C(F)(F)C(F)(F)Cl [9-Chloro-perfluorononanoic acid]
Experimental: as §1

[5] = compound: O=C(O)C(F)(F)OC(F)(F)C(F)(F)OC(F)(F)C(F)(F)C(F)(F)C(F)(F)F [Perfluoro-3,6-dioxadecanoic acid]
Experimental: as §1

[6] = compound: O=C(O)CCC(F)(F)C(F)(F)C(F)(F)C(F)(F)C(F)(F)F [2H,2H,3H,3H-Perfluorooctanoic acid]
Experimental: as §1

[7] = compound: O=S(=O)(O)C(F)(F)C(F)(F)C(F)(F)C(F)(F)C(F)(F)C(F)(F)C(F)(F)C(F)(F)F [Perfluorooctanesulfonic acid]
Experimental: as §1

| Test System | level (log10) ([1]; 6700 nM) | level (log10) ([1]; 20000 nM) | level (log10) ([2]; 6700 nM) | level (log10) ([2]; 20000 nM) | level (log10) ([2]; 60000 nM) | level (log10) ([3]; 6700 nM) | level (log10) ([3]; 20000 nM) | level (log10) ([4]; 6700 nM) | level (log10) ([4]; 20000 nM) | level (log10) ([5]; 6700 nM) | level (log10) ([5]; 20000 nM) | level (log10) ([5]; 60000 nM) | level (log10) ([6]; 6700 nM) | level (log10) ([6]; 20000 nM) | level (log10) ([6]; 60000 nM) | level (log10) ([7]; 6700 nM) | level (log10) ([7]; 20000 nM) | level (log10) ([7]; 60000 nM) |
| --- | --- | --- | --- | --- | --- | --- | --- | --- | --- | --- | --- | --- | --- | --- | --- | --- | --- | --- |
| BE3C:CXCL10/IP-10 | 0.0135 ± 0.018 | -0.004 ± 0.014 | 0.006 ± 0.024 | -0.0025 ± 0.022 | -0.0055 ± 0.019 | 0.008 ± 0.0042 | -0.0275 ± 0.019 | -0.0545 ± 0.015 | -0.462 ± 0.011 | -0.0415 ± 0.025 | -0.0795 ± 0.033 | -0.626 ± 0.02 | -0.009 ± 0.0042 | -0.006 ± 0.0028 | -0.0075 ± 0.005 | -0.0365 ± 0.013 | -0.478 ± 0.054 | -0.7725 ± 0.0035 |
| BF4T:IL-1alpha | -0.0175 ± 0.025 | 0.006 ± 0.0099 | 0.007 ± 0.011 | -0.0225 ± 0.011 | -0.028 ± 0.017 | -0.014 ± 0.013 | 0.0235 ± 0.032 | 0.0205 ± 0.0035 | -0.023 ± 0.011 | 0.008 ± 0.0057 | 0.0015 ± 0.00071 | -0.0055 ± 0.005 | -0.0035 ± 0.0078 | -0.0065 ± 0.016 | 0.017 ± 0.021 | 0.01 ± 0.011 | 0.002 ± 0.0014 | -0.002 ± 0.0099 |
| LPS:CD40 | -0.03 ± 0.024 | -0.0145 ± 0.021 | 0.0275 ± 0.066 | 0.028 ± 0.068 | 0.0515 ± 0.0021 | 0.0005 ± 0.12 | 0 ± 0.11 | 0.02 ± 0.064 | 0.055 ± 0.0071 | -0.0125 ± 0.0078 | -0.0265 ± 0.023 | -0.14 ± 0.055 | -0.005 ± 0.047 | -0.014 ± 0.02 | -0.0635 ± 0.026 | -0.018 | -0.0345 ± 0.022 | -0.076 ± 0.073 |
| BF4T:MMP-9 | 0.015 ± 0.0071 | 0.0165 ± 0.005 | -0.009 ± 0.042 | 0.0205 ± 0.029 | 0.033 ± 0.0014 | -0.0165 ± 0.047 | 0 ± 0.035 | -0.0395 ± 0.036 | -0.0715 ± 0.019 | -0.035 ± 0.0057 | -0.0215 ± 0.0064 | -0.051 ± 0.02 | -0.0095 ± 0.03 | -0.022 ± 0.027 | 0.015 ± 0.018 | 0.02 ± 0.0028 | 0.033 ± 0.0099 | 0.019 ± 0.095 |
| BE3C:CXCL8/IL-8 | 0.011 ± 0.024 | 0.0275 ± 0.015 | -0.0095 ± 0.018 | -0.015 ± 0.021 | -0.017 ± 0.076 | -0.005 ± 0.055 | 0.0365 ± 0.052 | 0.0025 ± 0.025 | -0.102 ± 0.049 | 0.0135 ± 0.016 | 0.0065 ± 0.019 | -0.0965 ± 0.0092 | 0.033 ± 0.042 | 0.004 ± 0.041 | 0.0035 ± 0.036 | -0.0875 ± 0.0035 | -0.136 ± 0.0021 | -0.348 ± 0.25 |
| BF4T:tPA | 0.0085 ± 0.0035 | -0.0115 ± 0.021 | -0.024 ± 0.027 | -0.033 ± 0.0057 | -0.0225 ± 0.026 | -0.0015 ± 0.019 | 0.0015 ± 0.049 | -0.075 ± 0.0099 | -0.098 ± 0.0099 | -0.051 ± 0.0014 | -0.0565 ± 0.026 | 0.0105 ± 0.05 | -0.014 ± 0.0014 | -0.023 ± 0.0085 | -0.0535 ± 0.042 | 0.0135 ± 0.013 | -0.0175 ± 0.00071 | 0.0195 ± 0.018 |
| 4H:CD106/VCAM-1 | -0.0205 ± 0.00071 | 0.0005 ± 0.021 | -0.0175 ± 0.019 | 0.021 ± 0.045 | -0.032 ± 0.03 | -0.0805 ± 0.037 | -0.0775 ± 0.0078 | -0.0145 ± 0.0078 | 0.0035 ± 0.013 | -0.0095 ± 0.018 | -0.0195 ± 0.022 | -0.039 ± 0.0099 | -0.0135 ± 0.0092 | -0.0325 ± 0.026 | -0.0405 ± 0.029 | 0.016 ± 0.0085 | -0.029 | -0.0155 ± 0.0064 |

Source: the supplement of paper PMC10331698
